Measured values taken from US4221805A, “Method of inducing platelet antiaggregation activity” (priority 1978, dated 1980).
Entries after “also recorded” stand apart in the source; their conditions may differ.

Experiments:
[1] = tested on: human PRP (Platelet Rich Plasma), platelet aggregation induced by ADP; test: In vitro platelet antiaggregation activity (Born method, ADP-induced); format: cell-based
Protocol: The method described by Born (Nature, 194, 927, 1962) was followed for this test, based on the increase in the platelet aggregation induced by ADP. The experiment was conducted using a human PRP (Platelet Rich Plasma) pool from four healthy volunteers who had not taken any drugs for ten days. The PRP was adjusted to 280,000±20,000 and kept at ambient temperature for the entire duration of the test.
400 μl of PRP and 100 μl of MRAP2 dissolved in a physiological solution and adjusted to a pH of 7.4 were placed in plastic test tubes. Three doses of the drug in question (0.181, 0.904 and 1.818 mg/ml) were used.
Three dilutions of aspirin were prepared under the same conditions for use as a comparison drug. Two minutes after contact between the drug and PRP, the test tube was inserted into the aggregometer cell (EEI, Model 169 with Corning Recorder Mod.840). After 60 seconds, ADP (10^-3 mM) was added and the aggregation was recorded. In calculating the antiaggregation activity, reference was made to the maximum amplitude of the aggregation curved obtained with ADP. Assuming this amplitude to be 100, the amplitudes of the curves obtained with the various doses of MRAP2 and aspirin were calculated as a percentage.

platelet aggregation = test: In vivo platelet antiaggregation activity; design: species or system male rats, Wistar strain; conditions: rats
Protocol: This experiment was carried out on male rats of the Wistar strain having a weight of 320±20 grams. Both the MRAP2 and the aspirin (used as a comparison drug) were dissolved in a physiological solution, and the solutions, adjusted to pH 7.4, were administered orally in doeses of 3 mg/kg to two groups of three rats each. […] The concentration of the solution was adjusted to contain 100 mg of MRAP2 per ml. Blood samples were drawn from each animal 72 and 120 hours after treatment, for checking the platelet aggregation. In calculating the activity, the previous method was used (the average of the three maximum amplitudes of the curves obtained with the untreated rats was given the control figure of 100%).

stomach (gastric lesion) = test: Ulcerogenic activity in rats after a single administration; format: in vivo, male albino rats, Wistar strain; conditions: rats; for Average degree of lesion + E.E.: scale 0-7, controls 0.65 ± 0.1
Protocol: The ulcerogenic activity of MRAP2 was tested both after a single administration of the drug, and after prolonged administration.
In these tests, a total of 70 male albino rats of Wistar strain were used, having a weight of 200±20 grams.
The MRAP2 was administered diluted in tap water.
40 rats, fasted for 18 hours before the experiment, were divided into four batches of ten animals and treated orally as follows:
3rd group: MRAP2 (50 mg/kg)
4th group: MRAP2 (125 mg/kg).
The animals were killed after six hours. The stomach was withdrawn and the gastric lesion index was evaluated in terms of an arbitrary scale of values lying between 0. and 7 based on previous models proposed by other authors.
Furthermore, the treatment was randomised in order to eliminate any possible polarisation of the data.
The points given for gastric ulcerative lesions were as follows:
(1) hyperaemia or slight capillary obstruction; or slight loss of the epithelium; or some petechiae even with pale mucosa without hyperaemia;
(2) diffuse capillary obstructions or numerous petechiae; or diffuse loss of the epithelium; of a few surface lesions;
(3) strong submucosa haemorrhage; or many petechiae and small surface lesions; or much anaemic mucosa (yellowish colour); or up to three small ulcers;
(4) general pattern as in the previous numbers, plus up to ten small ulcers; or long erosions; or up to three medium sized ulcers;
(5) pattern as in number 4, with up to 15 small ulcers; or up to 6 large ulcers;
(6) pattern as previously, with up to ten large ulcers, plus small ulcers;
(7) pattern as previously, plus up to ten large ulcers and small ulcers; cases of perforated ulcers.

Cl.Clc1ccccc1CN1CCCC1 [MRAP2, N-(2-chlorobenzyl)-pyrrolidine hydrochloride]
inhibition of platelet aggregation at 181 µg/mL ([1]; Platelet, ADP 10^-3 mM, drug 0.181 mg/ml): 26% | activity at 181 µg/mL ([1]; Platelet, ADP 10^-3 mM, drug 0.181 mg/ml, serum + ADP = 100): 74% | inhibition of platelet aggregation at 904 µg/mL ([1]; Platelet, ADP 10^-3 mM, drug 0.904 mg/ml): 91% | activity at 904 µg/mL ([1]; Platelet, ADP 10^-3 mM, drug 0.904 mg/ml, serum + ADP = 100): 9% | inhibition of platelet aggregation at 1818 µg/mL ([1]; Platelet, ADP 10^-3 mM, drug 1.818 mg/ml): 92% | activity at 1818 µg/mL ([1]; Platelet, ADP 10^-3 mM, drug 1.818 mg/ml, serum + ADP = 100): 8% | platelet antiaggregation activity (in words) ([1]; in vitro, ADP, manifested by the dose of 0.904 mg/ml, comparison with aspirin, hydrochloride): considerable platelet antiaggregation activity; also recorded: clearly superior to that possessed by aspirin | antiaggregation activity in vivo (in words) (platelet aggregation; oral 3 mg/kg, comparison with aspirin): superior to that of aspirin | % platelet antiaggregation activity on day 3 (platelet aggregation; single oral dose 3 mg/kg, day 3 (72 hours)): 38% | % platelet aggregation on day 3 (platelet aggregation; single oral dose 3 mg/kg, day 3 (72 hours), controls = 100): 62% | % platelet antiaggregation activity on day 5 (platelet aggregation; single oral dose 3 mg/kg, day 5 (120 hours)): 37% | % platelet aggregation on day 5 (platelet aggregation; single oral dose 3 mg/kg, day 5 (120 hours), controls = 100): 63% | Average degree of lesion + E.E. (stomach (gastric lesion); single oral 50 mg/kg): 0.80 ± 0.1 | Average degree of lesion + E.E. (stomach (gastric lesion); single oral 125 mg/kg, P <0.05 with regard to controls): 1.15 ± 0.2 | incidence of ulcerative lesions (in words) (stomach (gastric lesion); single oral administration, relative to control animals): almost identical or slightly greater than that of the control animals
